Reference: patent US12467068B2, “Process for the production and recovery of bio-surfactant from Bacillus sp. MCC0156” (COUNCIL OF SCIENTIFIC & INDUSTRIAL RESEARCH, priority 2019, dated 2025)

Legend:
[1] = Surfactant properties of purified compounds (oil dispersion, surface tension, emulsification); assay type: physicochemical; conditions: purified compound
Protocol: The purified compounds from the crude biosurfactants were analyzed for oil dispersion (OD), surface tension and emulsification activities using the standard protocols as mentioned in methodology. […] The low CMC value 0.3 mg/ml for crude biosurfactant results from mixture of compounds in compare to purified single compound.

Artemia salina = experiment: Toxicity on microcrustacean Artemia salina (mortality after 24 h); assay type: in vivo; conditions: 24 h at 28 °C, artificial sea water
Protocol: The toxicity of bio-surfactants on microcrustacean Artemia salina was performed in artificial sea water with 30 g/L (w/v) NaCl. Different concentrations like, 10 μg/ml, 100 μg/ml and 1000 μg/ml of crude bio-surfactant and purified compound-1 was supplemented in artificial sea salt solution (pH 8.0) and inoculated with 20 numbers of micro-crustacean A. salina in 10 ml per tube of solution and incubated for 24 h at 28° C. under artificial light condition.
The toxicity of bio-surfactants was determined by calculating the mortality rate against the control (in triplicate) after 24 h incubation. The effect of biosurfactants on the microorganisms was studied in minimal salt medium (MSM) to determine the utilization or degradation pattern of bio-surfactant in presence of Pseudomonas aeruginosa NCIM 2037, Arthrobacter sp NCIM 5452 and Rhodococcus sp NCIM 5488. The minimal salt medium was supplemented with 100 ppm of crude biosurfactant and inoculated with all three strains and incubated at 30° C., 150 rpm for 72 h. Effect of biosurfactants on growth of test strains were determined through measuring the optical density at 620 nm after incubation of 72 h.

[2] = parameters: Surface tension reduced to: unit not given here; conditions: cited from earlier work

## C=CCCCCCCCCCCCCCCCCCCCCCCCCCCCCCCCCCCCCCCCCCCCCCCCCCCCCCCCCCCCCCCCCCCCCCCCCCCCCCCCCCCCCCCCCCCCCC [compound-1, 1-Pentanonacontene]
[1]
  E24 for n-hexane: 40%
  Oil dispersion efficiency: 93.75%
[1]; distilled water 71.41±0.069 mN/m
  Surface tension of distilled water decreased to: 28.53±0.02 mN/m
Artemia salina; 10 μg/ml
  Mortality: 59%
Artemia salina; 100 μg/ml
  Mortality: 61%
Artemia salina; 1000 ug/ml
  Mortality: 68%

## CC(C)CCCCCCCCCCCCC(O)CC(=O)O (stereo not drawn) [compound-2, 3-Hydroxy-16-methylheptadecanoic acid]
[1]
  Surface properties (oil dispersion, surface tension, emulsification activity): not active

## Aneurinifactin
[2]; reported biosurfactant
  Surface tension reduced to: 26
[2]; reported biosurfactants
  CMC value: 0.026 mg/mL
